Reference: patent publication US20250366472A1, “1-AMINOCYCLOPROPANE-1-CARBOXYLIC ACID OXIDASE INHIBITORS (ACO-I)” (Royal Holloway and Bedford New College, priority 2022, published 2025)
Read-outs that look alike come from different tables or passages of the source.

Assays:
barley seedlings = test: Drought stress recovery of barley seedlings; type: in vivo; conditions: 5 days growth, 9 days drought, 12 days watered
Protocol: (§1) The seeds of each plant were washed with 5% sodium hypochlorite for 15 minutes (with shaking at 120 rpm) and then washed three times in sterile distilled water. The seeds were placed on two layers of waterlogged 3 MM for ˜72 hours under lights at RT until hypocotyl emerged. 7-10 germinated seeds were incubated in sterile Magenta boxes containing 100 mL perlite per box, moistened with 60 ml sterile distilled water and autoclaved. The seeds were incubated in a growth cabinet with a 12 hour light/dark cycle at 22° C. until the first seedling reached approximately 5 cm height. This took approximately 4-5 days. The water was then replaced with 0.5×Hoagland solution with the test compounds (or DMSO for control samples) for 24 hour (Hoagland's No2 Basal salt mixture, Sigma, H2395, use 1.6 g/L in sterile water and autoclaved), and returned to growth cabinet. The media was then removed, the perlite was rinsed twice with sterile distilled water and the solution was replace with 35 ml 0.5 ×Hoaglands solution and returned to the growth cabinet for 24 hours.
The no drought sample was then grown in 0.5×Hoaglands solution and the solution was topped up daily.
The drought samples were exposed to drought conditions for 9 days by removing the media and returned to the growth cabinet. At recovery, 0.5×Hoaglands solution was added back to the drought sample Magenta boxes, up to the top of the perlite and this level was maintained during recovery. The plant recovery over time (up to 19 days post rescue) was recorded and the photographs from the end of the experiment are illustrated in FIG. 8, FIG. 9 and FIG. 11.
10 μM of 3-[(2E)-3-(4-fluorophenyl)prop-2-enoyl]-4-hydroxy-6-methyl-2H-pyran-2-one (labelled as 16B), 10 μM of 5,5-dimethyl-2-(2-phenylacetyl) cyclohexane-1,3-dione (labelled as 4B) and […] of AIB and 500 μM of POA were tested on barley seedlings.

A. thaliana = A. thaliana root and hypocotyl extension after 6 days; type: in vivo; conditions: for effect on root and hypocotyl growth: FIG. 6A; for concentration from which dose dependent effect on root/hypocotyl growth is seen: versus DMSO control, FIG. 6B; for potency compared to AIB: hypocotyl or root extension, from table 3
Protocol: In these experiments, A. thaliana seeds were germinated and grown in 24 h light conditions for 6 days and root and hypocotyl length were recorded (FIG. 6A and 6B).
The IC50 values for the root or hypocotyl extension after 6 days for 5,5-dimethyl-2-(2-phenylacetyl) cyclohexane-1,3-dione (ACOi-84-16-4), 3-[(2E)-3-(4-fluorophenyl)prop-2-enoyl]-4-hydroxy-6-methyl-2H-pyran-2-one (ACOi-74-12-16) and MyA, compared to known compounds AIB and POA are presented in table 3. Images of the plant growth and the root hairs are shown in FIG. 6B for 5,5-dimethyl-2-(2-phenylacetyl) cyclohexane-1,3-dione (ACOi-84-16-4) and 3-[(2E)-3-(4-fluorophenyl)prop-2-enoyl]-4-hydroxy-6-methyl-2H-pyran-2-one (ACOi-74-12-16) and FIG. 6A for MyA and comparably for AIB and POA.

D. discoideum WT cells = test: D. discoideum multicellular development, block at mound stage; type: cell-based
Protocol: The effect of MyA on multicellular development of D. discoideum was measured. The MyA was tested at a concentration of 100 μM.
The effect of ACO loss on multicellular development was assessed. ACO-D. discoideum mutants were engineered and compared to standard wild type D. discoideum cells.

rye seedlings = test: Drought stress recovery of rye seedlings; type: in vivo; conditions: 10 μM, 9 days drought
Protocol: as §1
The no drought sample was then grown in 0.5×Hoaglands solution and the solution was topped up daily. […]
The drought testing was repeated with rye seedlings and the results are shown in FIG. 11 wherein the data was measured following 5 days of growth, 9 days of drought and 19 days of recovery. […]

Carnations = test: Cut carnation flower senescence (flower size); type: in vivo; conditions: for slowing of flower senescence versus control: 0.01 mM or 0.02 mM, flower size after 9 days; for performance versus POA and AIB: 0.01/0.02 mM versus POA 0.5/1 mM, AIB 5/10 mM
Protocol: Carnations were cut to approximately 5 cm long stems and placed in a solution wherein the solution comprised 5 mL water and either no additional components (control), 0.01 mM or 0.02 mM of 5,5-dimethyl-2-(2-phenylacetyl) cyclohexane-1,3-dione (labelled as 4B) or 3-[(2E)-3-(4-fluorophenyl)prop-2-enoyl]-4-hydroxy-6-methyl-2H-pyran-2-one (labelled as 16B) or 0.5 mM or 1 mM of POA or 10 mM or 5mM of AIB were added. The flower size coverage was measured and the petal shrinkage, or reduction in flower size, is used as an indicator of flower senescence.

wheat seedlings = test: Drought stress recovery of wheat seedlings; type: in vivo; conditions: 10 μM, 9 days drought, 19 days recovery
Protocol: as §1, with “The media was then removed, the perlite was rinsed twice with sterile distilled water and the solution was replace with 35 ml 0.5 ×Hoaglands solution and returned to the growth cabinet for 24 hours.” left out
The drought samples were exposed to drought conditions for 9 days by removing the media and returned to the growth cabinet. […] The plant recovery over time (up to 19 days post rescue) was recorded and the photographs from the end of the experiment are illustrated in FIG. 8, FIG. 9 and FIG. 11.
The drought testing was repeated with wheat seedlings and the results are shown in FIGS. 9 and 10 wherein the data was measured following 5 days of growth, 9 days of drought and 19 days of recovery. […]

D. discoideum cells = test: Inhibition of D. discoideum unicellular growth (wild type); type: cell-based
Protocol: The unicellular growth rate and multicellular of D. discoideum cells on exposure to MyA was tested and the results are illustrated in FIG. 1 and FIG. 2.
D. discoideum cells were divided by binary fission in nutrient-rich media, initially with a lag phase (0-120 h), and then an exponential phase. The D. discoideum cells were then exposed to MyA at concentrations of 0 μm, 1 μm, 10 μm, 15 μm, 25 μm, 50 μm and 100 μm.

[1] = tested on: csA, cAR1, pspA, ecmA expression; test: Developmental gene expression in D. discoideum by qPCR; type: cell-based; conditions: 100 μM, 0 to 20 hours
Protocol: To provide quantitative analysis of the developmental effects of MyA, wild type cells were induced to develop on nitrocellulose filters for time periods between 0 and 20 hours, using cells under solvent only conditions, in the presence of MyA (100 μM), or in the presence of MyA and CEPA. Developmental gene expression associated with early aggregation (csA), […], and in late development (ecmA) were assessed using qPCR. […] Similar delays in peak gene expression were also seen for carA (peak 4 h), and pspA (peak 12 h), and ecmA (peak 20 h), following MyA treatment, and these delays were rescued by addition of exogenous ethylene. These experiments confirm a MyA-dependent delay in D. discoideum development that is rescued by exogenous ethylene application, consistent with a role for MyA in inhibiting ACO activity and slowing crop maturation.

[2] = tested on: ACO ablated D. discoideum cells (ACO-); test: Growth sensitivity of ACO-mutant D. discoideum cells to MyA; type: cell-based
Description: The cell and developmental role of the D. discoideum ACO protein were investigated. FIG. 3C illustrates the resistance to the growth and developmental inhibitory effect of MyA on wild type D. discoideum cells (WT) and ACO ablated D. discoideum cells (ACO-).

ethylene production = test: Ethylene production of D. discoideum cells, headspace GCMS; type: cell-based; conditions: 500 μM
Protocol: Wild type cells in the presence or absence of MyA (500 μM), or ACO-cells were maintained in sealed small flasks with limited head space over 36 h, and headspace gas was taken at 6-hour intervals and analysed by GCMS.

[3] = Arabidopsis thaliana, 144 h, Root, 6 days, read-out: IC50 root extension
[4] = Hypocotyl, 6 days, read-out: IC50 hypocotyl extension
[5] = Arabidopsis thaliana, 144 h, Hypocotyl, 6 days, read-out: IC50 hypocotyl extension

## O=C(O)c1cnccn1 [POA, pyrazinecarboxylic acid, reference compound]
Barley seedlings; 500 μM
  recovery after drought: did not show positive result
A. thaliana; 6 days
  effect on root and hypocotyl growth: dose-dependent reduction
A. thaliana; [3]
  IC50: 213 µM
A. thaliana; [4]
  IC50: 184 µM

## Cc1cc(O)c(C(=O)/C=C/c2ccc(F)cc2)c(=O)o1 [ACOi-74-12-16, 3-[(2E)-3-(4-fluorophenyl)prop-2-enoyl]-4-hydroxy-6-methyl-2H-pyran-2-one]
D. discoideum WT cells; 100 μM
  efficacy in development block model: potent efficacy
Barley seedlings; 10 μM
  recovery after drought: comparable seedling height to the control sample which had been watered throughout the duration
Rye seedlings; 19 days recovery
  recovery after drought versus untreated drought control: improved recovery
Rye seedlings; 23 days recovery
  recovery after drought: continues to recover
Carnations
  slowing of flower senescence versus control: significant effect
  performance versus POA and AIB: comparable performance
Wheat seedlings
  recovery after drought versus untreated drought control: improved recovery
Wheat seedlings; FIG. 10
  seedling height and mass versus drought control: increased height and mass
A. thaliana; 6 days
  concentration from which dose dependent effect on root/hypocotyl growth is seen: 5 μm
A. thaliana; [5]
  IC50: 0.79 µM
A. thaliana; [3]
  IC50: 1.02 µM
A. thaliana
  potency compared to AIB: 1580 fold

## CC1C(=O)C(C(=O)CCc2ccccc2)C(=O)C(C)(C)C1=O (centres unmarked) [MyA, 2,2,4-trimethyl-6-(3-phenylpropanoyl) cyclohexane-1,3,5-trione]
D. discoideum cells; 10 μM, P<0.05
  effect on unicellular growth: significant reduction
D. discoideum cells; 100 μM
  effect on unicellular growth: block in growth
D. discoideum cells; Dictyostelium discoideum, wild type D. discoideum, secondary plot of normalised growth rate
  IC50: 7.6 µM
D. discoideum WT cells; 100 μM, 24 hours
  effect on multicellular development: later stages of development were delayed
D. discoideum WT cells; 100 μM, 36 hours
  development after extended incubation: developed into fully mature fruiting bodies
  lethality of high dose: not lethal
D. discoideum WT cells; MyA 100 μM plus CEPA
  rescue of developmental delay by exogenous ethylene (CEPA): partially rescued
[1]
  peak expression of developmental genes (csA, carA, pspA, ecmA): delayed
A. thaliana; 6 days
  effect on root and hypocotyl growth: comparative reduction
A. thaliana; [5]
  IC50: 59.4 µM
A. thaliana; [3]
  IC50: 53.3 µM
A. thaliana; root and hypocotyl, 6 days, 24 h light
  lowest concentration shown to have an effect on growth: 0.025 mM
A. thaliana; versus AIB
  lowest effective concentration, times lower than AIB: 20 times
A. thaliana; versus POA
  lowest effective concentration, times lower than POA: 4 times
[2]
  reduction in potency in the ACO-mutant versus wild type: four-fold
[2]; Dictyostelium discoideum, ACO- D. discoideum cells
  IC50: 29.9 µM
Ethylene production; 12 hours, P=0.031
  decrease in ethylene production: 39.5%
Ethylene production; 36 hours, P=0.0025
  decrease in ethylene production: 37.9%

## CC1(C)CC(=O)C(C(=O)Cc2ccccc2)C(=O)C1 [ACOi-84-16-4, 5,5-dimethyl-2-(2-phenylacetyl)cyclohexane-1,3-dione]
D. discoideum WT cells; 100 μM
  efficacy in development block model: potent efficacy
Barley seedlings; 10 μM
  recovery after drought: comparable growth to the same treated with 10,000 μM AIB
Carnations
  slowing of flower senescence versus control: significant effect
  performance versus POA and AIB: comparable performance
A. thaliana; 6 days
  concentration from which dose dependent effect on root/hypocotyl growth is seen: 5 μm
A. thaliana; [5]
  IC50: 8.2 µM
A. thaliana; [3]
  IC50: 6.9 µM
A. thaliana
  potency compared to AIB: over 5400 fold

## CC(C)(N)C(=O)O [AIB, a-aminoisobutyric acid, reference compound]
Barley seedlings; 2,000 μM
  recovery after drought: did slightly better
Barley seedlings; 10,000 μM
  recovery after drought: did better still
A. thaliana; 6 days
  effect on root and hypocotyl growth: dose-dependent reduction
A. thaliana; [4]
  IC50: 4290 µM
A. thaliana; Root, 6 days, read-out: IC50 root extension
  IC50: 1620 µM
